Source: patent publication US20200147058A1, “KRAS INHIBITOR FOR USE IN TREATING CANCER” (Friedrich-Alexander-Universitat Erlangen-Numberg, priority 2016, published 2020)

Experiments:
[1] = test system: normal human epidermal melanocytes (NHEM); test: toxicity in non-tumor cells (images, LDH); assay type: cell-based; settings: doses up to 20 μM
Source text: (§1) FIGS. 4A through 4H depict that small Molecule KRAS Inhibition Reduces Proliferation and Induces Apoptosis in Melanoma. FIGS. 4A and 4B show proliferation (slope of cell index) of Mel Juso (FIG. 4A) and Mel Im (FIG. 4B) cells treated with DMSO and different concentrations of the KRAS small molecule inhibitor Deltarasin (DR). The cell index as dimensionless parameter for cell proliferative ability was used to determine the half maximal inhibitory concentration (IC50, small graphs) of DR. […] FIG. 4D illustrates exemplary images of different melanoma cell lines (Mel Im, Mel Juso and Mel Ei) treated with 5 μM DR or 5 μM DMSO, respectively, for 24 hours. FIGS. 4E and 4F show images of fibroblast cell lines derived from two different donors (F1, F2) and melanocytes (NHEM) treated DR (20 μM, 48 hours) or DMSO (FIG. 4E), and lactate dehydrogenase (LDH) quantification (FIG. 4F) in cell supernatants (optic density, OD) of NHEM after treatment with low dose DMSO, DR (5 μM), and DR (10 μM), respectively.

Mel Juso cells [2] = test: FACS analysis of apoptosis (Annexin / propidium iodide); assay type: cell-based, human
Source text: as §1
(§2) FIGS. 5A through 5D show time-dependent measurement of colony diameters (exemplary data in top panels) in three-dimensional, anchorage-independent “colony-forming” assays (FIGS. 5A and 5B: Mel Im, FIGS. 5C and 5D: Mel Juso). Exemplary Images (middle) and corresponding quantification of colony diameters (bottom panels, summarized data of n=3 experiments at day 19 after seeding) are also depicted. Treatments were performed in four different groups (10 μM DMSO, 5 μM Deltarasin=DR, M PLX-4032=PLX (vemurafenib), or combination of 10 μM PLX+[…]). Effects on i) colony formation (FIGS. 5A and 5C, treatment at day 1) and ii) proliferation of pre-formed colonies (FIGS. 5B and 5D, treatment at day 7 and 13) were analyzed. […] FIG. 5F show images of PLX-primary resistant Mel Juso cells treated with DMSO, DR (5 μM), high dose PLX (20 μM) and a combination of 5 μM DR+10 μM PLX for 24 hours. […] Cells were treated for 5 hours with DMSO, 5 μM Deltarasin (DR), 10 μM PLX, or a combination of 10 μM PLX and 5 μM DR. According to exemplary images for Annexin and propidium iodide (PI) staining are depicted for Mel Im. (FIG. 5H) Mel Im and Mel Juso were transfected with control si-RNA (si-CTR) or with si-KRAS (si-KR). Two subgroups (blue and red) were additionally treated with 10 μM PLX (Vemurafenib) for 24 hours, with subsequent flow cytometric quantification of tumor cell apoptosis according to FIG. 5G. Exemplary images for Annexin and propidium iodide (PI) staining are depicted for Mel Im.

Mel Im cells [3] = test: as above; assay type: cell-based, human
Source text: as §1, §2

Mel Im cells [4] = test: three-dimensional, anchorage-independent colony-forming assay; assay type: cell-based, human; settings: Mel Im (BRAFi primary sensitive); DR 5 μM, PLX 10 μM, alone or combined
HepG2 hepatoma cells = test: Annexin V / PI staining with FACS analysis of apoptosis; assay type: cell-based, human; settings: 8 μM
PLC cells = test: Western blot pERK- and pAKT protein levels; assay type: cell-based, human; settings: Deltarasin vs DMSO
Mel Im cells [5] = test: long-term treatment, emergence of surviving tumor cells and drug resistance; assay type: cell-based, human; settings: 28 days, IC50 or 2×IC50
Source text: as §1
FIGS. 6A through 6H depict that KRASi Prevents Emergence of Resistance and KRAS Expression is Regulated Dynamically in Acquired Resistance to BRAFi. […] Asterisks indicate significant differences (p<0.05) as compared to according control (0 μM PLX). […] Densitometric values (DM) are also shown, representing relative quantifications. […]

Hep3B cells = test: Western blot pERK- and pAKT protein levels; assay type: cell-based, human; settings: Deltarasin vs DMSO
[6] = test system: human fibroblast cell lines; test: toxicity in non-tumor cells (images); assay type: cell-based; settings: doses up to 20 μM, 48 hours
Source text: as §1

HCC tumor cells = test: tumor cell toxicity in HCC; assay type: cell-based, human; settings: higher doses of DR (>8 μM)
[7] = test system: murine hepatoma cell line Hepa129; test: cell cycle FACS analysis (propidium iodide staining); assay type: cell-based; settings: 5-6 hours of treatment
Source text: FIG. 13 depicts Deltarasin Inducing G2/M-Cell Cycle Arrest in Murine HCC Cells.

Mel Juso cells [8] = test: long-term treatment, emergence of surviving tumor cells and drug resistance; assay type: cell-based, human; settings: 28 days, IC50 or 2×IC50
Htz19 melanoma cells [9] = test: three-dimensional colony formation assay; assay type: cell-based, human; settings: Htz19 (BRAFi primary sensitive); DR 5 μM, PLX 10 μM, alone or combined
[10] = test system: melanoma cell lines (Mel Im, Mel Juso and Mel Ei); test: toxicity (images) in melanoma cell lines; assay type: cell-based, human; settings: 5 μM, 24 hours
Source text: as §1

[11] = test system: 451Lu-R and SkMel28-R cells; test: long-term treatment of PLX-resistant cell lines, surviving tumor cells; assay type: cell-based, human; settings: 8 μM DR, 28 days
HCC cells = test: anchorage-dependent tumor cell growth; assay type: cell-based, human; settings: low doses (6 μM)
Htz19 melanoma cells [12] = test: FACS analysis of apoptosis; assay type: cell-based, human; settings: 5 hours, 5 μM DR
[13] = test system: murine hepatoma cell line Hepa129; test: viable cells counted by microscopy; assay type: cell-based; settings: 24 hours
Procedure: FIGS. 12A through 12C depict Murine Hepatoma Cells (Hepta129) Sensitive for Small Molecule KRAS Inhibition in vitro and in vivo. […] is exemplary images (4-fold) depicting murine Hepatoma Cells (Hepa129) treated for 24 hours with Deltarasin (DR) and/or Sorafenib (SF) using different concentration of inhibitors.

Hep3B = test: real-time cell proliferation assay; assay type: cell-based, human; settings: DR doses
[14] = 5 hours, 5 μM DR, 10 μM PLX or combination

c1ccc(Cn2c(-c3ccc(OC[C@H](C4CCNCC4)n4c(-c5ccccc5)nc5ccccc54)cc3)nc3ccccc32)cc1 [Deltarasin, (S)-1-Benzyl-2-(4-(2-(2-phenyl-1H-benzo[d]imidazol-1-yl)-2-(piperidin-4-yl)ethoxy)phenyl)-1H-benzo[d]imidazole]
toxic effects in normal human epidermal melanocytes (NHEM) [1]: no toxic effects
induction of apoptosis (FACS) (Mel Juso cells [2]; 5 μM for 8, 16 and 24 hours): marked time-dependent induction of apoptosis
apoptosis (FACS), short treatment (Mel Juso cells [2]; [14]): did not induce apoptosis
induction of apoptosis (FACS) (Mel Im cells [3]; 5 μM for 8, 16 and 24 hours): marked time-dependent induction of apoptosis
apoptosis (FACS), short treatment (Mel Im cells [3]; [14]): only slightly induced apoptosis
three-dimensional colony formation and proliferation of pre-formed colonies (Mel Im cells [4]): similarly effective as PLX
induction of apoptosis (FACS) (HepG2 hepatoma cells): marked dose-dependent induction of apoptosis
pERK- and pAKT protein levels (PLC cells): significant reduction
surviving tumor cells after long-term treatment (Mel Im cells [5]): no surviving tumor cells were detected
pERK- and pAKT protein levels (Hep3B cells): significant reduction
toxic effects in human fibroblast cell lines [6]: no toxic effects
tumor cell toxicity (HCC tumor cells): marked tumor cell toxicity
G2/M-Cell Cycle Arrest [7]: dose-dependently induces
SubG1 fractions [7]: increased
surviving tumor cells after long-term treatment (Mel Juso cells [8]): no surviving tumor cells were detected
three-dimensional colony formation and proliferation of pre-formed colonies (Htz19 melanoma cells [9]): similarly effective as PLX
toxicity in different melanoma cell lines [10]: marked toxicity
emergence of surviving tumor cells (cross-resistance to DR) [11]: completely abolish the emergence of surviving tumor cells
anchorage-dependent tumor cell growth (HCC cells): suppressed
apoptosis (FACS), short treatment (Htz19 melanoma cells [12]): only slightly induced apoptosis
tumor cell proliferation (viable cells) [13]: marked effects
inhibition of proliferation (Hep3B): strong dose-dependent inhibition of proliferation
